The text below walks through data of ChEMBL document CHEMBL4385643, “Design of a brain-penetrant CDK4/6 inhibitor for glioblastoma” (Bioorg Med Chem Lett, 2019).

Test [1] has as its target RAC-alpha serine/threonine-protein kinase (Homo sapiens) (UniProt P31749). Description: Inhibition of recombinant full length human His-tagged AKT1 expressed in baculovirus expression system at 0.1 uM using serine/threonine-06 peptide as substrate incubated for 60 mins by Z'-LYTE assay relative to control.
The target in test [2] is Tyrosine-protein kinase ZAP-70 (Homo sapiens) (UniProt P43403). Put plainly: Inhibition of recombinant full length human His-tagged ZAP70 expressed in baculovirus expression system at 0.1 uM using tyrosine-7 peptide as substrate incubated for 60 mins by Z'-LYTE assay relative to control.
In test [3] the target is Dual specificity protein kinase TTK (Homo sapiens) (UniProt P33981). Put plainly: Inhibition of tracer 236 binding to recombinant full length human GST-tagged TTK expressed in baculovirus expression system at 0.1 uM measured after 60 mins by Lanthascreen assay.
Test [4] has as its target Serine/threonine-protein kinase PAK 3 (Homo sapiens) (UniProt O75914). Put plainly: Inhibition of recombinant full length human His-tagged PAK3 expressed in baculovirus expression system at 0.1 uM using serine/threonine-20 peptide as substrate incubated for 60 mins by Z'-LYTE assay relative to control.
Test [5] addresses Serine/threonine-protein kinase 4 (Homo sapiens) (UniProt Q13043). Put plainly: Inhibition of recombinant full length human GST-tagged MST1 expressed in baculovirus expression system at 0.1 uM using serine/threonine-7 peptide as substrate incubated for 60 mins by Z'-LYTE assay relative to control.
The target in test [6] is Homeodomain-interacting protein kinase 1 (Homo sapiens) (UniProt Q86Z02). Put plainly: Inhibition of recombinant human GST-tagged HIPK1 catalytic domain (158 to 555 residues) expressed in baculovirus expression system at 0.1 uM using serine/threonine-9 peptide as substrate incubated for 60 mins by Z'-LYTE assay relative to control.
Test [7] deals with Aurora kinase B (Homo sapiens) (UniProt Q96GD4). Description: Inhibition of recombinant full length human His-tagged Aurora B expressed in baculovirus expression system at 0.1 uM using serine/threonine-1 peptide as substrate incubated for 60 mins by Z'-LYTE assay relative to control.
For test [8], the system named is RAF proto-oncogene serine/threonine-protein kinase (Homo sapiens), P04049 [Y340D,Y341D]. Description: Inhibition of recombinant human GST-tagged RAF1 Y340D Y341D mutant catalytic domain (306 to 648 residues) expressed in baculovirus expression system at 0.1 uM using serine/threonine-3 peptide as substrate incubated for 60 mins by Z'-LYTE assay relative to control.

Test [9] concerns the target MAP kinase-activated protein kinase 3 (Homo sapiens) (UniProt Q16644). Put plainly: Inhibition of recombinant full length human His-tagged MAPKAPK3 expressed in baculovirus expression system at 0.1 uM using serine/threonine-4 peptide as substrate incubated for 60 mins by Z'-LYTE assay relative to control.
The target of test [10] is CDK18/Cyclin Y (Homo sapiens) (UniProt Q07002+Q8ND76). Put plainly: Inhibition of recombinant full length human GST-tagged CDK18/Cyclin Y (2 to end amino acids) expressed in insect expression system at 0.1 uM using serine/threonine-12 peptide as substrate incubated for 60 mins by Z'-LYTE assay relative to control.
The target in test [11] is Mitogen-activated protein kinase kinase kinase 20 (Homo sapiens) (UniProt Q9NYL2). Description: Inhibition of recombinant full length human GST-tagged ZAK expressed in baculovirus expression system at 0.1 uM using CREBtide as substrate 60 mins by Lanthascreen assay relative to control.
Test [12] has as its target Serine/threonine-protein kinase 3 (Homo sapiens) (UniProt Q13188). Description: Inhibition of recombinant full length human GST-tagged MST2 expressed in baculovirus expression system at 0.1 uM using serine/threonine-7 peptide as substrate incubated for 60 mins by Z'-LYTE assay relative to control.
The target in test [13] is Angiopoietin-1 receptor (Homo sapiens) (UniProt Q02763). Put plainly: Inhibition of recombinant human GST-tagged TIE2 (817 to 1101 residues) expressed in baculovirus expression system at 0.1 uM using tyrosine-5 peptide as substrate incubated for 60 mins by Z'-LYTE assay relative to control.
For test [14], the target named is Mitogen-activated protein kinase 12 (Homo sapiens) (UniProt P53778). Description: Inhibition of recombinant full length human His-tagged p38gamma expressed in baculovirus expression system at 0.1 uM using serine/threonine-3 peptide as substrate incubated for 60 mins by Z'-LYTE assay relative to control.
Test [15] concerns the target Protein kinase C beta type (Homo sapiens) (UniProt P05771). Description: Inhibition of recombinant full length human GST-tagged PKCbeta1 expressed in insect expression system at 0.1 uM using serine/threonine-7 peptide as substrate incubated for 60 mins by Z'-LYTE assay relative to control.
The target in test [16] is Tyrosine-protein kinase ITK/TSK (Homo sapiens) (UniProt Q08881). Description: Inhibition of recombinant full length human GST-tagged ITK expressed in baculovirus expression system at 0.1 uM using tyrosine-1 peptide as substrate incubated for 60 mins by Z'-LYTE assay relative to control.
Test [17] deals with Ephrin type-A receptor 3 (Homo sapiens) (UniProt P29320). Description: Inhibition of tracer 236 binding to recombinant human His-tagged EPHA3 (569 to 976 residues) expressed in baculovirus expression system at 0.1 uM measured after 60 mins by Lanthascreen assay relative to control.
The target in test [18] is Focal adhesion kinase 1 (Homo sapiens) (UniProt Q05397). Put plainly: Inhibition of recombinant full length human GST-tagged FAK expressed in baculovirus expression system at 0.1 uM using tyrosine-7 peptide as substrate incubated for 60 mins by Z'-LYTE assay relative to control.
In test [19] the target is Fibroblast growth factor receptor 3 (Homo sapiens) (UniProt P22607). Put plainly: Inhibition of recombinant human His-tagged FGFR3 catalytic domain (399 to 806 residues) expressed in baculovirus expression system at 0.1 uM using tyrosine-4 peptide as substrate incubated for 60 mins by Z'-LYTE assay relative to control.
Test [20] concerns the target Tyrosine-protein kinase BTK (Homo sapiens) (UniProt Q06187). Description: Inhibition of recombinant full length human His-tagged BTK expressed in baculovirus expression system at 0.1 uM using tyrosine-1 peptide as substrate incubated for 60 mins by Z'-LYTE assay relative to control.
The target of test [21] is Serine/threonine-protein kinase pim-1 (Homo sapiens) (UniProt P11309). Put plainly: Inhibition of recombinant full length human His-tagged PIM1 expressed in baculovirus expression system at 0.1 uM using serine/threonine-7 peptide as substrate incubated for 60 mins by Z'-LYTE assay relative to control.
Test [22] has as its target Casein kinase I isoform delta (Homo sapiens) (UniProt P48730). Put plainly: Inhibition of recombinant full length human GST-tagged CK1delta expressed in baculovirus expression system at 0.1 uM using serine/threonine-11 peptide as substrate incubated for 60 mins by Z'-LYTE assay relative to control.
For test [23], the target named is Calcium/calmodulin-dependent protein kinase type 1 (Homo sapiens) (UniProt Q14012). Put plainly: Inhibition of recombinant full length human His-tagged CAMK1 expressed in baculovirus expression system at 0.1 uM using ZIPtide peptide as substrate incubated for 60 mins by Adapta assay relative to control.

Sequence of Tyrosine-protein kinase ZAP-70 (Homo sapiens) (P43403 whole entry): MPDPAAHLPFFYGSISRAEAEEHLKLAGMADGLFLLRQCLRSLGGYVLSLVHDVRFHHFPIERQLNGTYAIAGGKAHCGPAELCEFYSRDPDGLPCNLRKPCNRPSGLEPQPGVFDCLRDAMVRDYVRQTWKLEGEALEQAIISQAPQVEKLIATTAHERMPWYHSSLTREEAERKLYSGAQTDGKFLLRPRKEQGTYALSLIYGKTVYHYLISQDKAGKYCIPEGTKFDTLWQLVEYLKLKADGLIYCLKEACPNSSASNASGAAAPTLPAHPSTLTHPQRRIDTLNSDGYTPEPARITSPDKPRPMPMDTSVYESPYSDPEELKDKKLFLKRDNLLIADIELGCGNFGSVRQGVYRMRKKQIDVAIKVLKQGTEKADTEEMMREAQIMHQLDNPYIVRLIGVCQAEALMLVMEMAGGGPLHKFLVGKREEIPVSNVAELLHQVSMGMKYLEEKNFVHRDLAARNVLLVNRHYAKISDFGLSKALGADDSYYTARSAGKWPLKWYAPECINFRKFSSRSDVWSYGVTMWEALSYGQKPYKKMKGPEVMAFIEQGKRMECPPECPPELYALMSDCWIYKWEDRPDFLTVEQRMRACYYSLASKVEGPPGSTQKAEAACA
Sequence of Angiopoietin-1 receptor (Homo sapiens) (Q02763 whole entry, the tested form may be a part): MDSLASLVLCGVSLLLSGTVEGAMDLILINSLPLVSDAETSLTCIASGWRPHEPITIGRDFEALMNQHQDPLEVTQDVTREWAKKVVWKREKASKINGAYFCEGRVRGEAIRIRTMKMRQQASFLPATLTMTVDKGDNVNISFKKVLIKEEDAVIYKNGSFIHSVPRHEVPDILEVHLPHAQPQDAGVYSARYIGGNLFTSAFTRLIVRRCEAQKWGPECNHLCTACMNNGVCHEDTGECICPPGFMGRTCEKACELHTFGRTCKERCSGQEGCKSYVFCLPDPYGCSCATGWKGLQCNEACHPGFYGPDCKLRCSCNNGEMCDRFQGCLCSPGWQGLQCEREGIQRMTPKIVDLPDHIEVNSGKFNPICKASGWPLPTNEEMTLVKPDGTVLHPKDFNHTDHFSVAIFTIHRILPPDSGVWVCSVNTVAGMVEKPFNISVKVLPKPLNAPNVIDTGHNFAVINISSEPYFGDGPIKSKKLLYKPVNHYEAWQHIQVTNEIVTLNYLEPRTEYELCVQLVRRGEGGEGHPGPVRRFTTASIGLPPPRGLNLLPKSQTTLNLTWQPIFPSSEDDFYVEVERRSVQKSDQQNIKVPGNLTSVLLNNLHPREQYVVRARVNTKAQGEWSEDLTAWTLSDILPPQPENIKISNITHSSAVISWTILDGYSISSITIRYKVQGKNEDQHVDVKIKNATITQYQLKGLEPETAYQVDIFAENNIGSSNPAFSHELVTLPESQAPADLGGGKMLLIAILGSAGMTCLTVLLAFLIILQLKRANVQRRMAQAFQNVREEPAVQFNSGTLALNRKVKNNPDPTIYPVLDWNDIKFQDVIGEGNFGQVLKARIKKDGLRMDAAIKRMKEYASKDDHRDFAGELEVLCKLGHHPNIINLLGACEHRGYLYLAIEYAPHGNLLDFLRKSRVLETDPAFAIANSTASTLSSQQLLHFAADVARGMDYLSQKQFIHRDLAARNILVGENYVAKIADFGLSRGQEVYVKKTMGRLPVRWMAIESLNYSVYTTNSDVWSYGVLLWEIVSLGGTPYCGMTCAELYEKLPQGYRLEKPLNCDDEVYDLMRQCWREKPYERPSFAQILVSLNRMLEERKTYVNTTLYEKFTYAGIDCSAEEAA
Sequence of Serine/threonine-protein kinase 4 (Homo sapiens) (Q13043 whole entry, the tested form may be a part): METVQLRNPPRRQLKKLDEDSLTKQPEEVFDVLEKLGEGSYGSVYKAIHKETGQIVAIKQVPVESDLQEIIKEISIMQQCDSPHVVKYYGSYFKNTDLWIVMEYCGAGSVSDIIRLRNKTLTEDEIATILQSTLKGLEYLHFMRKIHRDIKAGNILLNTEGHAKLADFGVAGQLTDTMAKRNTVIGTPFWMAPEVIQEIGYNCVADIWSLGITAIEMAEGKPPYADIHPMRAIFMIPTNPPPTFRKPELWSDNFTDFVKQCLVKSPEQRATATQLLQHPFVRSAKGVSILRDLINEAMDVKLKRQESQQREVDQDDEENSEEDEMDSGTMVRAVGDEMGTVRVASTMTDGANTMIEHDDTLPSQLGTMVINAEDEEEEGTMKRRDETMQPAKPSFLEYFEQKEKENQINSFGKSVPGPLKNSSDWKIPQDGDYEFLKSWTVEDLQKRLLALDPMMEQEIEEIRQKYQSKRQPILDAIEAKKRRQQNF
Sequence of Homeodomain-interacting protein kinase 1 (Homo sapiens) (Q86Z02 whole entry, looked up, the tested form may be a part): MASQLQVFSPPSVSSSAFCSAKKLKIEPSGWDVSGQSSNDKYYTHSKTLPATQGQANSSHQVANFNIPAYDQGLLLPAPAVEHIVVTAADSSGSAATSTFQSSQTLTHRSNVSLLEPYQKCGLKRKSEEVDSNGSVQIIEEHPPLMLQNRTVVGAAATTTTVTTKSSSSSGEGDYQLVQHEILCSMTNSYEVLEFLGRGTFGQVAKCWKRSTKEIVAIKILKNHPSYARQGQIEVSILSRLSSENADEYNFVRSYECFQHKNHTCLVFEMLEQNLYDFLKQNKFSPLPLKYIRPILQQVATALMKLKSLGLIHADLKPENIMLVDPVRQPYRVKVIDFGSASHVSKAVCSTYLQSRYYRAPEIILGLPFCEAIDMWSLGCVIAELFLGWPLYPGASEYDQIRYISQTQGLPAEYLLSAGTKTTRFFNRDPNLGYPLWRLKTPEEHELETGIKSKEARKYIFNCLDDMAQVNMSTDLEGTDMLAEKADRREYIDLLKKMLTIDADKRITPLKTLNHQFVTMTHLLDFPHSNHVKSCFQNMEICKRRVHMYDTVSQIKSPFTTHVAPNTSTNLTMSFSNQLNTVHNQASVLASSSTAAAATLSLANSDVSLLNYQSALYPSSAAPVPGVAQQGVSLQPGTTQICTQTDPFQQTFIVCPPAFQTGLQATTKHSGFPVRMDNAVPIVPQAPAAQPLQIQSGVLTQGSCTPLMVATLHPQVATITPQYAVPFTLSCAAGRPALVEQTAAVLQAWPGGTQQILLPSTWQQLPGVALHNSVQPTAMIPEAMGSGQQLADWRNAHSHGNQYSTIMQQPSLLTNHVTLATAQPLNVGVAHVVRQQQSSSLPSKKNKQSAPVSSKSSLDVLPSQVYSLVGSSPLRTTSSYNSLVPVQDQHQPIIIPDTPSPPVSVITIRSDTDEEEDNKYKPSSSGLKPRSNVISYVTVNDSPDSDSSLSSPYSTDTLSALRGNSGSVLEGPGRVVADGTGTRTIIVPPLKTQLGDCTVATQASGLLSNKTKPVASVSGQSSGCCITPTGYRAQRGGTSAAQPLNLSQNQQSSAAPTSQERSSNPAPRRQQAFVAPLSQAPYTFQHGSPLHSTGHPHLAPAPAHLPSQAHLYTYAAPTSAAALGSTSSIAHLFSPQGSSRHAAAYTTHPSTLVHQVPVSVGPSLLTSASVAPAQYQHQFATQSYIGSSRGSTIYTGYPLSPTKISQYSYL
Sequence of Fibroblast growth factor receptor 3 (Homo sapiens) (P22607 23-806 limits assumed): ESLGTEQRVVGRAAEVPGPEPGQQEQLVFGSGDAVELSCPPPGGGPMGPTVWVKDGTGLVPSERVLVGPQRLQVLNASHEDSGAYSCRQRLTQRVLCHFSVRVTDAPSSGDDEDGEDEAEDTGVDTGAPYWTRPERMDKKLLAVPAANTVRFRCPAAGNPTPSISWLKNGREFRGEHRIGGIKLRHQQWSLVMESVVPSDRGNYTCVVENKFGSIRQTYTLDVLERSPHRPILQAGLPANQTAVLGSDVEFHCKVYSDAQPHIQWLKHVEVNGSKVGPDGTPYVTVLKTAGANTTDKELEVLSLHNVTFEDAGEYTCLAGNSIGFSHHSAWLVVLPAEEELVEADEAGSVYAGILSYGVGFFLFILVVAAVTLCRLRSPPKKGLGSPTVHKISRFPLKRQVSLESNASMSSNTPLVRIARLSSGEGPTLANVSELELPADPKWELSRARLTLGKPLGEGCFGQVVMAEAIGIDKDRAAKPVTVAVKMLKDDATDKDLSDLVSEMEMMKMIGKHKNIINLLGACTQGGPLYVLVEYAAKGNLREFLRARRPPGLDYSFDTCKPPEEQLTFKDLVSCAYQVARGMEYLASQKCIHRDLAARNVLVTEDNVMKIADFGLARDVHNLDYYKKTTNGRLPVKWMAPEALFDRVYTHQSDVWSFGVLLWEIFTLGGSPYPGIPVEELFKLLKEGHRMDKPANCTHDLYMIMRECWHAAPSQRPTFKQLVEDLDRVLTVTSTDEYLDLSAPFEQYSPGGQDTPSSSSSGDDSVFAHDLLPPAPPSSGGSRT
Sequence of Mitogen-activated protein kinase 12 (Homo sapiens) (P53778 whole entry): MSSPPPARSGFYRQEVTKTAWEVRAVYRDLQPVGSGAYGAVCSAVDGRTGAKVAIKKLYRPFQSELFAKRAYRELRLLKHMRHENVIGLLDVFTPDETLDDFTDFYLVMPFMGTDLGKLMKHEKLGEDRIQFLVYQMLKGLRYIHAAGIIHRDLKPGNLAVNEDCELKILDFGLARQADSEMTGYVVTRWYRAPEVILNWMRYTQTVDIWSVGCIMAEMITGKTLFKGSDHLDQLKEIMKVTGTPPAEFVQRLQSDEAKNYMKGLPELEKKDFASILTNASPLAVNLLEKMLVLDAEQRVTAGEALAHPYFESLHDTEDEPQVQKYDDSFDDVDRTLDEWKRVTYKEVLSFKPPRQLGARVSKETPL
Sequence of MAP kinase-activated protein kinase 3 (Homo sapiens) (Q16644 whole entry, looked up): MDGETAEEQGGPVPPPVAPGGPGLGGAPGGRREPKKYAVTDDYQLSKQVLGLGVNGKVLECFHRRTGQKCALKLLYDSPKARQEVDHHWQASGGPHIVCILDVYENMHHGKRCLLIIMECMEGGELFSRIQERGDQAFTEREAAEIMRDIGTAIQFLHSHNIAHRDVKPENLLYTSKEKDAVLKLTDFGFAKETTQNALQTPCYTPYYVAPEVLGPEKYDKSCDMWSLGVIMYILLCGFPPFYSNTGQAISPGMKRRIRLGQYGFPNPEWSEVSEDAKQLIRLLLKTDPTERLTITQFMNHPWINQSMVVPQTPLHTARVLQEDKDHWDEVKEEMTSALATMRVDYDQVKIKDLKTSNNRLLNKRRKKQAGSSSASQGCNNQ

For the molecule `CCN1CCN(Cc2ccc(Nc3ncc(F)c(-c4cc(F)c5nc(C)n(C(C)C)c5c4)n3)nc2)CC1` [ABEMACICLIB], the inhibition in test [1] is 6.5%; in [2], -0.5%; in [3], 54.5%; in [4], 11.4%; in test [5], 1.5%; in [6], 78.5%. Besides, the inhibition worked out at 14.5% in test [7]; 0% in test [8]; 9% in [9]; 29% in test [10]; 1.9% in test [11]; 13% in [12]. For the same molecule, the inhibition in test [13] is -2%; in test [14], 5%; in test [15] it was 38%; in [16] it was 0.5%; in test [17], 2.1%; in test [18], 15.5%. Further, the inhibition in test [19] was found to be 0%; in [20], 3%; in test [21] it was 95%; in test [22] it was 10.5%; in [23], 26.7%.

For `CCN1CC2(C1)CN(c1ccc(Nc3ncc(F)c(-c4cnn5c4[C@H](C)CCCC5)n3)nc1)C2`, the inhibition is 2% in test [1]; 7% in [2]; 41% in test [3]; 8% in [4]; 8% in test [5]; 4.5% in test [6]. The inhibition in test [7] was 7.5%; in test [8], -0.5%; in test [9] it was 1%; in test [10], 30.5%; in test [11], 5%; in [12] it was 4%. For the same molecule, the inhibition in test [13] was -0.5%; in test [14], 16%; in test [15], 4.5%; in test [16], 6%; in test [17] it was 6.5%; in test [18], 19.5%. Further, the inhibition in test [19] worked out at 1.5%; in test [20] it was 4%; in test [21], 11.5%; in [22] it was 5%; in test [23] it was 10.5%.
